According to patent publication US9023789B2, “Amylin analogs and pharmaceutical compositions thereof” (Novo Nordisk A/S, priority 2012, dated 2015):
≈ marks a conversion by molar mass, not a printed value. Where two headings read alike, the source gives them in different places. Numbered stars: 1 amine (or outer) side, 2 acyl side, 3 side chain; on linkers, the order of the positions; unused ones are H or OH. Bridge positions count the residues as written; N and C are the ends. Side chains are listed from the residue outwards. Peptide text beside a SMILES is read from it. * marks the point of attachment. C20 diacid = O=C(O)CCCCCCCCCCCCCCCCCCC(=O)*; γGlu = O=C(O)[C@H](CCC(=O)[*:2])N[*:1]; AEEA = NCCOCCOCC(=O)O

Experiments:
[1] = target: T1, rat calcitonin receptor (Rattus norvegicus, UniProt P32214); assay: ASSAY (VIII) binding to the rat calcitonin receptor; details: Table 7, read-out: rCTR bind IC50
T1 construct: expressed in transfected cells; host or cells: BHK tk'ts 13 (transient, FuGENE 6), membranes
T1 sequence (P32214 25-479 isoform P32214-2 limits assumed): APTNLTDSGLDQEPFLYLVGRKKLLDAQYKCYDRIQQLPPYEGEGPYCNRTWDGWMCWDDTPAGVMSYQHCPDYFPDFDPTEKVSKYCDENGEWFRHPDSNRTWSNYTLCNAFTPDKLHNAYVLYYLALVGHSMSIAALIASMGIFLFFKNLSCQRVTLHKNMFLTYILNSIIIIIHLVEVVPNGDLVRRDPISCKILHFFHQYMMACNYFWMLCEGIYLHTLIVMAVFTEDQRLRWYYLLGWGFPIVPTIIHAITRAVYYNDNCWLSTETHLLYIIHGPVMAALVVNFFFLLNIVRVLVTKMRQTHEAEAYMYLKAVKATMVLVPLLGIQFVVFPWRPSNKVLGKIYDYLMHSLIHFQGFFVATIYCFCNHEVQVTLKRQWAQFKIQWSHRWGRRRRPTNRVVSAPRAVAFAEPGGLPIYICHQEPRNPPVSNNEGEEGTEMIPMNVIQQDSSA
Outline: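 Cell membranes for binding came from BHK tk′ts 13 cells harvested approximately 48 hours after transient transfection with the rat receptor.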

[2] = target: T2, rat amylin receptor (rat calcitonin receptor + rat RAMP 3) (Rattus norvegicus, UniProt P32214+Q9JJ73); assay: ASSAY (VI) binding to the rat amylin receptor; details: for IC50: binding to rat amylin receptor, read-out: rAmylin-R bind IC50
T2 construct: expressed in transfected cells; host or cells: BHK tk'ts 13 (transient, FuGENE 6), membranes
T2 sequence (P32214 25-479 isoform P32214-2 limits assumed): T1 sequence (P32214 25-479 isoform P32214-2 limits assumed)
T2 sequence (Q9JJ73 23-147 partner): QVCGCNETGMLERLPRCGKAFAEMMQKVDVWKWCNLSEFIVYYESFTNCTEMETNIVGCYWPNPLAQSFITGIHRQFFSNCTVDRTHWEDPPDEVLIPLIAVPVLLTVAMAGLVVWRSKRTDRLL
Outline: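 The cell-membrane assay assessed binding at the rat amylin receptor. BHK tk′ts 13 cells were transfected transiently with rat calcitonin receptor, with FuGENE® 6 (Roche) as the transfection reagent, used per the manufacturer's recommendations. Approximately 48 hours after transfection the cells were harvested, and membranes were prepared for measuring binding.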

[3] = ASSAY (IV) determination of solubility; format: physicochemical
Outline: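 Samples of polypeptide, prepared from a water stock at […] and diluted 1:1 into 100 mM buffers spanning pH 3.0 to 8.0, stood 18 hours at room temperature. Polypeptide concentration was then determined by UPLC following centrifugation.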

[4] = target: T3, human amylin 3(a) receptor (human calcitonin receptor + RAMP-3) in BHK570 cells (Homo sapiens, UniProt O60896+P30988); assay: ASSAY (II)a functional assay, human amylin receptor (CRE luciferase); format: cell-based
T3 construct: expressed in transfected cells
Outline: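 Read-out: CRE-driven luciferase luminescence, single photon counting, after 30 min at room temperature with LucLite. BHK cells expressed calcitonin receptor alone or with RAMP-3 (amylin 3(a)). Cells were stimulated 3 h at 37° C in DMEM, 10% FBS, 10 mM Hepes, pH 7.4.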

[5] = target: T4, human amylin receptor (membranes from Amylin 3(a)/CRE-luc cells) (Homo sapiens, UniProt O60896+P30988); assay: ASSAY (V) binding to the human amylin receptor (SPA, 125I-rat amylin);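 also: competition binding of cell membranes (35 ng/µL) mixed with SPA beads in 384-well plates at 40 µL total volume, read by scintillation counting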
T4 construct: expressed in transfected cells
T4 sequence (P30988 25-474): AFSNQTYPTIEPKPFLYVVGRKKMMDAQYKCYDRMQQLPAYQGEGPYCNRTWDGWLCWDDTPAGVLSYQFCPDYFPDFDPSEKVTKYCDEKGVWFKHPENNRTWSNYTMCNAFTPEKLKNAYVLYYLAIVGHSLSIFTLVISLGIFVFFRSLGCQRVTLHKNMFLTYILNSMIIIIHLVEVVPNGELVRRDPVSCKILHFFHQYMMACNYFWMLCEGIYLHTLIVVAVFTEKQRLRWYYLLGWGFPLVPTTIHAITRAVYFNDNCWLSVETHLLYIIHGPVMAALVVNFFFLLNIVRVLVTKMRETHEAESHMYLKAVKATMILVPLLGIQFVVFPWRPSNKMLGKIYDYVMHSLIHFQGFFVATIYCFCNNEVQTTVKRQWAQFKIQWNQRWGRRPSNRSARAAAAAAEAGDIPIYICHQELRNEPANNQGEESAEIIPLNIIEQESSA
T4 sequence (O60896 24-148 partner): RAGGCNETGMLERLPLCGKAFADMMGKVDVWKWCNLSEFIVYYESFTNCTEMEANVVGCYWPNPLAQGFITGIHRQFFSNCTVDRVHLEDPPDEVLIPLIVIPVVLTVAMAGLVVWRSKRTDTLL

[6] = Table 7, rat binding selectivity, rCTR IC50 / rAmylin-R IC50
[7] = Table 7a (preferred compounds), rat binding selectivity, rCTR IC50 / rAmylin-R IC50
[8] = ratio of rCTR bind IC50 to rAmylin-R bind IC50
[9] = bistrispropane buffer, pH 6.5, read-out: Solubility pH 6.5 Concentration
[10] = bistrispropane buffer, pH 7.5, read-out: Solubility pH 7.5 Concentration
[11] = bistrispropane buffer, pH 6.0, read-out: Solubility pH 6.0 Concentration
[12] = bistrispropane buffer, pH 7.0, read-out: Solubility pH 7.0 Concentration
[13] = bistrispropane buffer, pH 8.0, read-out: Solubility pH 8.0 Concentration
[14] = glycylglycine buffer, pH 3.0, read-out: Solubility pH 3.0 Concentration
[15] = glycylglycine buffer, pH 4.0, read-out: Solubility pH 4.0 Concentration
[16] = glycylglycine buffer, pH 5.0, read-out: Solubility pH 5.0 Concentration
[17] = hCTR funct. EC50 divided by hAmylin-R funct. EC50
[18] = human functional selectivity: hCTR funct. EC50 / hAmylin-R funct. EC50
[19] = Table 5, selectivity, hCTR bind IC50 / hAmylin-R bind IC50
[20] = Table 5a, selectivity, hCTR bind IC50 / hAmylin-R bind IC50
[21] = Table 5b, selectivity, hCTR bind IC50 / hAmylin-R bind IC50
[22] = Table 5c, selectivity, hCTR bind IC50 / hAmylin-R bind IC50
[23] = Table 7, human binding selectivity, included for comparison
[24] = Table 7a (preferred compounds), human binding selectivity, included for comparison
[25] = ratio of human calcitonin receptor binding IC50 to human amylin receptor binding IC50

For `CC[C@H](C)[C@H](NC(=O)[C@H](C)NC(=O)CNC(=O)[C@H](Cc1ccccc1)NC(=O)[C@H](CC(N)=O)NC(=O)[C@@H]1CCCN1C(=O)[C@H](CO)NC(=O)[C@H](CO)NC(=O)[C@H](Cc1c[nH]cn1)NC(=O)[C@H](CCCNC(=N)N)NC(=O)[C@H](CC(C)C)NC(=O)[C@H](Cc1ccccc1)NC(=O)[C@H](CC(N)=O)NC(=O)[C@H](C)NC(=O)[C@H](CC(C)C)NC(=O)[C@H](CCCNC(=N)N)NC(=O)[C@H](CCC(N)=O)NC(=O)[C@@H](NC(=O)[C@H](C)NC(=O)[C@@H]1CSSC[C@H](NC(=O)[C@@H](N)CCCCNC(=O)COCCOCCNC(=O)CC[C@H](NC(=O)CCCCCCCCCCCCCCCCCCC(=O)O)C(=O)O)C(=O)N[C@@H](CC(N)=O)C(=O)N[C@@H]([C@@H](C)O)C(=O)N[C@@H](C)C(=O)N[C@@H]([C@@H](C)O)C(=O)N1)[C@@H](C)O)C(=O)N1CCC[C@H]1C(=O)N[C@@H](CO)C(=O)N1CCC[C@H]1C(=O)N[C@H](C(=O)N[C@@H](CC(N)=O)C(=O)N[C@H](C(=O)NCC(=O)N1CCC[C@H]1C(=O)N[C@@H](CC(N)=O)C(=O)N[C@H](C(=O)N[C@@H](Cc1ccc(O)cc1)C(N)=O)[C@@H](C)O)C(C)C)[C@@H](C)O` [Example 56] (H-K([AEEA-γGlu-C20 diacid])CNTATCATQRLANFLRHSSPNFGAIPSPTNVGPNTY-NH2; disulfide 2-7 (inferred); N-terminus assumed), the IC50 [1] was 5.26 nM, the IC50 ([2]; Table 7) was 0.04 nM and the “Ratio rCT/rAmylin binding” value [2, 6] was 131.4. The “Ratio rCT/rAmylin binding” value [2, 7] was 131.4, the “Ratio rCT/rAmylin binding” value [2, 8] was 131.4 and the solubility at 18 h [3, 9] was at least 200 µM. The solubility at 18 h [3, 10] was at least 200 µM, the solubility at 18 h [3, 11] was at least 200 µM and the solubility at 18 h [3, 12] was at least 200 µM. The solubility at 18 h [3, 13] was 147 µM (≈ 668 µg/mL), the solubility at 18 h [3, 14] was at least 200 µM and the solubility at 18 h [3, 15] was at least 200 µM. The solubility at 18 h [3, 16] was at least 200 µM, the “Ratio hCT/hAmylin funct.” value [4, 17] was 5.0 and the “Ratio hCT/hAmylin funct.” value [4, 18] was 5.0. The “Ratio hCT/hAmylin binding” value [5, 19] was 42.6, the “Ratio hCT/hAmylin binding” value [5, 20] was 42.6 and the “Ratio hCT/hAmylin binding” value [5, 21] was 42.6. The “Ratio hCT/hAmylin binding” value [5, 22] was 42.6, the “Ratio hCT/hAmylin binding” value [5, 23] was 42.6 and the “Ratio hCT/hAmylin binding” value [5, 24] was 42.6. For the same molecule, the “Ratio hCT/hAmylin binding” value [5, 25] was 42.6.
In the case of `CC[C@H](C)[C@H](NC(=O)[C@H](C)NC(=O)CNC(=O)[C@H](Cc1ccccc1)NC(=O)[C@H](CC(N)=O)NC(=O)[C@@H]1CCCN1C(=O)[C@H](CO)NC(=O)[C@H](CO)NC(=O)[C@H](Cc1c[nH]cn1)NC(=O)[C@H](CCCNC(=N)N)NC(=O)[C@H](CC(C)C)NC(=O)[C@H](Cc1ccccc1)NC(=O)[C@H](CC(N)=O)NC(=O)[C@H](C)NC(=O)[C@H](CC(C)C)NC(=O)[C@H](CCCNC(=N)N)NC(=O)[C@H](CCC(N)=O)NC(=O)[C@@H](NC(=O)[C@H](C)NC(=O)[C@@H]1CSSC[C@H](NC(=O)[C@@H](N)CCCCNC(=O)CC[C@H](NC(=O)CCCCCCCCCCCCCCCCCCC(=O)O)C(=O)O)C(=O)N[C@@H](CC(N)=O)C(=O)N[C@@H]([C@@H](C)O)C(=O)N[C@@H](C)C(=O)N[C@@H]([C@@H](C)O)C(=O)N1)[C@@H](C)O)C(=O)N1CCC[C@H]1C(=O)N[C@@H](CO)C(=O)N[C@@H](CO)C(=O)N[C@H](C(=O)N[C@@H](CC(N)=O)C(=O)N[C@H](C(=O)NCC(=O)N[C@@H](CCCNC(=N)N)C(=O)N[C@@H](CC(N)=O)C(=O)N[C@H](C(=O)N[C@@H](Cc1ccc(O)cc1)C(N)=O)[C@@H](C)O)C(C)C)[C@@H](C)O` [Example 79] (H-K([γGlu-C20 diacid])CNTATCATQRLANFLRHSSPNFGAIPSSTNVGRNTY-NH2; disulfide 2-7 (inferred); N-terminus assumed), the IC50 [1] is reported as 35.5 nM, the IC50 ([2]; Table 7) is reported as 1.65 nM and the “Ratio rCT/rAmylin binding” value [2, 6] is reported as 21.5. For the same molecule, the “Ratio rCT/rAmylin binding” value [2, 7] was 21.5, the “Ratio rCT/rAmylin binding” value [2, 8] was 21.5 and the solubility at 18 h [3, 9] was at least 200 µM. It also gave a solubility at 18 h [3, 10] of at least 200 µM, a solubility at 18 h [3, 11] of at least 200 µM and a solubility at 18 h [3, 12] of at least 200 µM. The solubility at 18 h [3, 13] was at least 200 µM, the solubility at 18 h [3, 14] was at least 200 µM and the solubility at 18 h [3, 15] was at least 200 µM. For the same molecule, the solubility at 18 h [3, 16] was at least 200 µM, the “Ratio hCT/hAmylin funct.” value [4, 17] was 24.5 and the “Ratio hCT/hAmylin funct.” value ([4]; hCTR funct. EC50 over hAmylin-R funct. EC50) was 24.5. The EC50 ([4]; human amylin receptor functional potency, assay (II), read-out: hAmylin-R funct. EC50) was 0.161 nM, the “Ratio hCT/hAmylin funct.” value [4, 18] was 24.5 and the IC50 ([5]; Table 4, read-out: hAmylin-R bind IC50) was 0.79 nM. For the same molecule, the “Ratio hCT/hAmylin binding” value [5, 19] was 46.1, the “Ratio hCT/hAmylin binding” value [5, 20] was 46.1 and the “Ratio hCT/hAmylin binding” value [5, 21] was 46.1. For the same molecule, the “Ratio hCT/hAmylin binding” value [5, 22] was 46.1, the “Ratio hCT/hAmylin binding” value [5, 23] was 46.1 and the “Ratio hCT/hAmylin binding” value [5, 24] was 46.1. For the same molecule, the “Ratio hCT/hAmylin binding” value [5, 25] was 46.1.
